Assays:
Assay in all cases: Method of dilutions in liquid medium (MIC)
Format in all cases: cell-based
Conditions in all cases: 24 hours at 37° C.
[1] = test system: Staph. aureus 011HT18
Procedure: (§1) A—Method of dilutions in liquid medium A series of tubes is prepared in which the same quantity of sterile nutritive medium is distributed. Increasing quantities of the product to be studied are distributed into each tube, then each tube is sown with a bacterial strain. After incubation for twenty-four hours in an oven at 37° C., the growth inhibition is evaluated by transillumination, which allows the minimal inhibitory concentrations (M.I.C.) to be determined, expressed in micrograms/cm^3. Activity in vitro MIC in μg/ml

[2] = test system: Strepto. pyogene 02A1UC1
Procedure: as §1

[3] = test system: Staph. epidermidis 0126042
Procedure: as §1

[4] = test system: Staph. coag. negative 012HT5
Procedure: as §1

[5] = test system: Entero faecalis 02D2UC5
Procedure: as §1

[6] = test system: Entero faecium 02D3IP2
Procedure: as §1

[7] = test system: Strepto. pneumoniae 030BI2
Procedure: as §1

| SMILES | Activity in vitro MIC [1] | Activity in vitro MIC [2] | Activity in vitro MIC [3] | Activity in vitro MIC [4] | Activity in vitro MIC [5] | Activity in vitro MIC [6] | Activity in vitro MIC [7] |
| --- | --- | --- | --- | --- | --- | --- | --- |
| C#CCONC(=O)O[C@H]1[C@@H](O)[C@H](Oc2ccc3c(O)c(C(N)=O)c(=O)oc3c2C)OC(C)(C)[C@@H]1OC [Ex. 1, (2-propynyloxy)-carbamic 3′ester of 7-[[6-deoxy-5-C-methyl-4-O-methyl-alpha-L-lyxo-hexopyranosyl]oxy]-4-hydroxy-8-methyl-2-oxo-2H-1-benzopyran-3-carboxamide acid] | 0.04 µg/mL | 0.6 µg/mL | 0.04 µg/mL | 0.3 µg/mL | 0.3 µg/mL | 0.08 µg/mL | 0.04 µg/mL |
| C#CCONC(=O)O[C@H]1[C@@H](O)[C@H](Oc2ccc3c(O)c(C(=O)NCCN4CCOCC4)c(=O)oc3c2C)OC(C)(C)[C@@H]1OC [Ex. 2, 7-[(6-deoxy-5-C-methyl-4-O-methyl-alpha-L-lyxo-hexopyranosyl)oxyl]-4-hydroxy-8-methyl-N-[2-(4-morpholinyl)ethyl]-2-oxo-2H-1-benzopyrane-3-carboxamide (2-propynyloxy)-carbamic 3′-ester acid] | 0.04 µg/mL | 0.3 µg/mL | 0.04 µg/mL | 0.04 µg/mL | 1.2 µg/mL | 0.6 µg/mL | 0.08 µg/mL |
| C#CCONC(=O)O[C@H]1[C@@H](O)[C@H](Oc2ccc3c(O)c(C(C)=NOCC)c(=O)oc3c2C)OC(C)(C)[C@@H]1OC [Ex. 4, 7-[(6-deoxy-5-C-methyl-4-O-methyl-alpha-L-lyxo-hexopyranosyl)oxy]-3-[1-(ethoxyimino)ethyl]-4-hydroxy-8-methyl-2H-1-benzopyran-2-one(2-propynyloxy)-carbamic 3′-ester acid] | 0.04 µg/mL | 0.6 µg/mL | 0.15 µg/mL | 0.15 µg/mL | 1.2 µg/mL | 1.2 µg/mL | 0.15 µg/mL |
| C#CCONC(=O)O[C@H]1[C@@H](O)[C@H](Oc2ccc3c(O)c(C(C)=NOC)c(=O)oc3c2C)OC(C)(C)[C@@H]1OC [Ex. 3, 7-[[6-deoxy-5-C-methyl-4-O-methyl-alpha-L-lyxo-hexopyranosyl]oxy]-4-hydroxy-3-[1-(methoxyimino)ethyl]-8-methyl-2H-1-benzopyran-2-one(2-propynyloxy)-carbamic-3′-ester acid] | 0.04 µg/mL | 0.6 µg/mL | 0.04 µg/mL | 0.15 µg/mL | 1.2 µg/mL | 1.2 µg/mL | 0.08 µg/mL |

Reference: patent US6420538B1, “Aromatic amides, preparation method and application as medicines” (Aventis Pharma S.A., priority 1998, dated 2002)
